Values joined by “and” are separate entries in the source; they are usually repeats but may differ in a detail not shown here. Equal entries are not always repeated. Where two headings read alike, the source gives them in different places.
Tests used:
[1] = system: CP70 ovarian cancer cell line; assay: Proliferation assay (MTT); format: cell-based; details: Ovarian CP70, read-out: IC50
[2] = HMC pharmacokinetics i.v. and i.p., mice; format: in vivo, female BALB/c mice; details: for concentration at 0.25 hr / concentration at 0.5 h / concentration at 4 hr / concentration at 24 hr / concentration at 1 hr: female, BALB/c, mouse, serum, 50 mg/kg; for concentration at 0.25 hr: 50 mg/kg in 20% HPBCD; for concentration at 0.5 h: 0.50 hr
Description: HMC was prepared as a solution in 20% hydroxypropyl-beta-cyclodextrin (m:v, water). […] Three animals were allocated to each timepoint (15 min, 30 min, 1 hr, 4 hr and 24 hr). At each respective timepoint, animals were euthanased by cervical dislocation and blood collected. Urine was also collected and analysed for HMC. Free HMC was analysed by mass spectroscopy.

[3] = Toxicity in HPAC tumour bearing mice (weight, histopathology, serum biochemistry); format: in vivo, Athymic nu/nu BALB/c mice
Description: Subconfluent (80%) flasks of HPAC cells were trypsinised, washed in Hanks balanced salt solution (Sigma), resuspended in dubellco's minimal essential medium (Sigma) and an equal volume of Matrigel™ (Becton Dickson) at a density of 3.7×10^7 cells per ml. Athymic nu/nu BALB/c mice were s.c. inoculated with 3.7×10^6 HPAC cells bi-laterally midway along the dorsal surface. For the HMC (n=3 per dosage regimen) and control groups (n=2), treatment commenced five days post inoculation to allow tumour formation. HMC was formulated 20% HPBCD and delivered i.p. daily for 15 days. The control group received equivalent (weight:weight) i.p. doses of 20% HPBCD. Tumour measurements commenced on day 5 post inoculation (10×10 mm^2) and were measured in 2 dimensions, length (a) and width (b), using calipers. Tumor weight (W) was calculated by the formula W=ab2/2, where a, is the longer of the 2 measurements (Odwyer et al., 1994). Tumour proliferation curves were analyzed with respect to maximal tumour inhibition (treated/control, TIC). On sacrifice, liver, kidney, femur, stomach and colon tissue were fixed in buffered formalin, embedded in paraffin, sections cut and stained with H&E. Stained sections were then submitted to Rothwell consulting for histopathology analysis. Serum biochemistry was conducted on bloods taken from control, vehicle control and HMC treatment groups. Serum analysis was conducted by Veterinary Clinical pathology (U. Syd).
Histopathological examination of haematoxylin and eosin-stained sections cut from formalin-fixed tissues from two series of experimental mice was made. The liver, kidney, stomach and colon were examined for evidence of toxic damage, the spleen and bone marrow for evidence of myelosuppression and the tumour for degree of necrosis. A score of 0-5 was allocated to each tumour specimen for the degree of necrosis present, a 0 score representing, no necrosis and a score of 5, total necrosis. The sections were scored ‘blind’ on two separate occasions and the final score given in the results is the mean of these two scores.
Alakalines phosphatase (ALP), alanine transferase (ALT) and creatine (Cre) were assessed in HMC treated vs control animals. ALP and Cre levels were similar to control and fell within normal ranges (for rat) however, ALT levels in vehicle control and HMC treated groups were much lower than no treatment control levels.

[4] = system: ME4405 melanoma cells (TRAIL sensitive); assay: Apoptosis incidence in melanoma cells; format: cell-based
[5] = system: Mel-AT melanoma cells (Trail +ve/Caspase 8 −ve); assay: Apoptosis incidence in melanoma cells; format: cell-based
[6] = system: TRAIL-sensitive and -resistant melanoma cells; assay: Apoptosis incidence, statements over several melanoma cell lines; format: cell-based; details: for incidence of apoptosis: 4 μM
MM200 melanoma cell line = assay: HMC combination with topotecan (synergy); format: cell-based; details: for IC50: Table 11, single agent; for Change Factor (Combined): 5-day combination
Description: (§1) IC50 values were determined for each cell line. Cells were seeded in 96-well plates at an appropriate cell density as determined from growth kinetics analysis and cultured for 5 days in the absence and presence of the test compounds. […] IC50 values were calculated from semi-log plots of % of control proliferation on the y-axis against log dose on the x-axis.
(§2) 3-D model analysis of the cytotoxic interaction between drug A and drug B enables the representation of predicted inhibitory effect of two drugs in combination in 3 dimensions to reveal actual regions of synergy or antagonism. […] Theoretical Additivity was calculated from the cytotoxicities of drug A and drug B as monotherapies using the following formula which assumes the drugs are mutually exclusive inhibitors: […]
HMC synergy with topotecan was assessed either in combination over 5 days exposure or in sequence (HMC→topotecan) against the MM200 melanoma cell line.

[7] = system: Mel-RM melanoma cell line; assay: HMC combination with doxorubicin (synergy); format: cell-based; details: for IC50: Table 12, single agent; for Change Factor (Combined): 5-day combination
Description: as §1, §2
HMC synergy with doxorubicin was assessed either in combination over 5 days exposure or in sequence (HMC→doxorubicin) against the Mel-RM melanoma cell line.

[8] = individual HMC treated mice, 100 mg/kg, listed as HMC
[9] = 120 h, 5 days exposure, read-out: IC50, Combined (monotherapy)
[10] = 24 hr exposure, read-out: IC50, 24 hr (monotherapy)

COc1ccc(C2c3ccc(O)cc3OCC2c2ccc(O)cc2)cc1 (stereo not shown) [Compound 1, 3-(4-hydroxyphenyl)-4-(4-methoxyphenyl)chroman-7-ol]
IC50 ([1]; Table 2.1): 1210 ± 290 nM | IC50 ([1]; Table 2.2 (further studies)): 2100 nM | free HMC in urine ([2]; 0.5 hr): 3.3 mM | free HMC in urine ([2]; 1 hr): 3.9 mM | serum concentration i.p. vs i.v. ([2]; 1 hr post administration): ~4.5 fold | free HMC in urine ([2]; 4 hr): 0.093 mM | concentration at 0.25 hr ([2]; ip): 131 µM | concentration at 0.5 h ([2]; ip): 31.8 µM | concentration at 4 hr ([2]; ip, 4 hr): 0.15 µM | concentration at 24 hr ([2]; ip): 0.17 µM | concentration at 1 hr ([2]; ip, i.p., 1 hr post administration, read-out: serum concentration): 18.7 µM | concentration at 1 hr ([2]; ip, ip, 1 hr, read-out: Serum HMC): 18.7 µM | concentration at 0.25 hr ([2]; iv): 1070 µM | concentration at 0.5 h ([2]; iv): 199 µM | concentration at 4 hr ([2]; iv, 4 hr): 0.07 µM | concentration at 24 hr ([2]; iv): 0.05 µM | concentration at 1 hr ([2]; iv, i.v., 1 hr post administration, read-out: serum concentration): 3.98 µM | concentration at 1 hr ([2]; iv, iv, 1 hr, read-out: Serum HMC): 3.98 µM | HMC in plasma ([2]; i.p. administration, up to 1 hour post administration): 131 µM | elimination kinetics ([2]; i.p., hours 1-4 post administration): 4.6 µM/h | elimination kinetics ([2]; i.p., up to 1 hour post administration): 112 µM/h | HMC in plasma ([2]; i.v. administration, up to 1 hour post administration): 1069 µM | level of HMC in blood ([2]; i.v. in HPBCD, 15 min post administration): 1000 µM | rate of excretion from blood ([2]; i.v., first hr post administration): ~1000 µM/h | rate of excretion from blood ([2]; i.v., hours 1-4 post administration, assuming linear excretion): 0.97 µM/h | serum concentration of free HMC i.p. vs orally delivered HMC ([2]; mice): ~18 fold | toxicity as determined by weight loss ([3]; 100 mg/kg daily for 15 days): no signs of toxicity | toxicity to major organs by histopathology ([3]; 100 mg/kg to mice): not toxic to major organs | ALP (serum) [3, 8]: 111 U/L and 100 U/L and 74 U/L | ALT (serum) [3, 8]: 482 U/L and 494 U/L and 505 U/L | Cre (serum) [3, 8]: 8 uM (2×) and 17 uM | Urea (serum) [3, 8]: 8.11 mM and 7.79 mM and 7.27 mM | Percent Apoptosis ([4]; 24 hr exposure, 1 uM): 0% | Percent Apoptosis ([4]; 24 hr exposure, 2 uM): 8% | Percent Apoptosis ([4]; 24 hr exposure, 4 uM): 9% | Percent Apoptosis ([4]; 24 hr exposure, 8 uM): 11% | Percent Apoptosis ([4]; 24 hr exposure, 20 uM): 19% | Percent Apoptosis ([4]; 48 hr exposure, 1 uM): 1.5% | Percent Apoptosis ([4]; 48 hr exposure, 2 uM): 8% | Percent Apoptosis ([4]; 48 hr exposure, 4 uM): 42% | Percent Apoptosis ([4]; 48 hr exposure, 8 uM): 20% | Percent Apoptosis ([4]; 48 hr exposure, 20 uM): 18% | Percent Apoptosis ([5]; 24 hr exposure, 1 uM): 0% | Percent Apoptosis ([5]; 24 hr exposure, 2 uM): 6% | Percent Apoptosis ([5]; 24 hr exposure, 4 uM): 9% | Percent Apoptosis ([5]; 24 hr exposure, 8 uM): 23% | Percent Apoptosis ([5]; 24 hr exposure, 20 uM): 24% | Percent Apoptosis ([5]; 48 hr exposure, 1 uM): 1% | Percent Apoptosis ([5]; 48 hr exposure, 2 uM): 7% | Percent Apoptosis ([5]; 48 hr exposure, 4 uM): 25% | Percent Apoptosis ([5]; 48 hr exposure, 8 uM): 59% | Percent Apoptosis ([5]; 48 hr exposure, 20 uM): 35% | apoptosis ([6]; 2 μM, 24 and 48 hrs of exposure, all TRAIL-sensitive and -resistant melanoma cells): 7-10% | incidence of apoptosis ([6]; 24 hr exposure, the other cell lines (not MEL-RM, IGR3)): ~9% | incidence of apoptosis ([6]; 48 hr, all cell lines examined): 21-42% | IC50 (MM200 melanoma cell line; [9]): 702 nM | chemosensitisation of MM200 cells to topotecan (change in IC50) (MM200 melanoma cell line; HMC 2 μM, HMC→topotecan sequence): > 1000 fold | IC50 (MM200 melanoma cell line; [10]): 18000 nM | Change Factor (HMC first) (MM200 melanoma cell line; Topotecan block, HMC 1 uM 24 hr then topotecan 24 hr): 50.656 | Change Factor (Combined) (MM200 melanoma cell line; Topotecan block, with HMC 1 uM): ?HMC effect | Change Factor (Combined) (MM200 melanoma cell line; Topotecan block, with HMC 2 uM): ?HCM effect | Change Factor (HMC first) (MM200 melanoma cell line; upper block of Table 11, HMC 2 uM first, sequence): >1000 | Change Factor (Combined) (MM200 melanoma cell line; upper block of Table 11, HMC 2 uM): ?HMC effect | IC50 [7, 9]: 540 nM | Change Factor (HMC first) ([7]; HMC 1 uM 24 hr then doxorubicin 24 hr): 1.62 | Change Factor (HMC first) ([7]; HMC 2 uM 24 hr then doxorubicin 24 hr): 12.22 | chemosensitisation of Mel-RM cells to camptothecin (change in IC50) ([7]; HMC 2 μM, sequence protocol): ~12 fold | IC50 [7, 10]: 50500 nM | Change Factor (Combined) ([7]; doxorubicin with HMC 1 uM): −2.06 | Change Factor (Combined) ([7]; doxorubicin with HMC 2 uM): ?HMC effect

From US8163795B2, “Chroman derivatives, medicaments and use in therapy” (Marshall Edwards, Inc., priority 2004, dated 2012)
